According to article PMC12016938, “A small molecule PKCε inhibitor reduces hyperalgesia induced by paclitaxel or opioid withdrawal” (JCI Insight, 2025):
Where “and” joins values, the source holds several entries; their conditions need not be identical. Equal entries are not always repeated. Entries after “also recorded” stand apart in the source; their conditions may differ.

Legend:
[1] = target: T1, PKCγ (Homo sapiens, UniProt P05129); experiment: Lance-FRET kinase assay, PKCγ; format: biochemical; details: Figure 1B
T1 construct: purchased SignalChem Biotech
Description: Kinase assays. CP612 was assayed against His-AVI–tagged human PKCε (1 nM) produced in Sf9 cells, and ROCK1 (Carna Biosciences; 5 nM) using the Lance-FRET kinase assay system (PerkinElmer Revvity). Other human recombinant PKCs (SignalChem Biotech) were assayed in triplicate at the following concentrations: PKCβII 1.6 nM, PKCγ 500 pM, PKCδ 5 nM, PKCθ 500 pM, and PKCζ 500 pM. PKCs were incubated in a 15 μL reaction volume with kinase buffer (20 mM Tris-HCL [pH 7.4], 10 mM MgCl2, 0.25 mM EGTA, 0.1 mg/mL BSA, and 0.15% Triton X-100), 50 nM ULight-labeled CREBtide […] (PerkinElmer, TRF0107, Revvity), and test compound. […] After incubation at 27°C for another 60 minutes, phosphorylation was detected using a FlexStation 3 Microplate Reader (Molecular Devices) in LANCE TR-FRET mode (excitation = 340 nm, emission = 665 nm) and expressed as relative fluorescence units (RFU). The percentage of inhibition was calculated as: (signal without test compound − signal with test compound)/(signal without test compound − signal without ATP) × 100. […]
Kinase assays used 11-point concentration-response curves and results were analyzed by nonlinear regression using Prism 9 (GraphPad Software) to determine IC50 values. […] Scores for pain threshold, conditioned place preference, and self-administration were analyzed by ANOVA using the following factors. […]

[2] = target: T2, PRKG2 (Protein Kinase CGMP-Dependent 2) (Homo sapiens, UniProt Q13237); experiment: scanMax kinome panel, PRKG2; format: binding; details: 200 nM CP612
T2 construct: purchased Eurofins-DiscoverX
Description: (§1) CP612 was screened for kinome specificity at 200 nM against 468 kinases using the scanMax assay panel from Eurofins-DiscoverX. CP612 inhibited 10 other WT kinases besides PKCε, all to < 10% of control: CLK1 (CDC Like Kinase 1), CLK4, PKN1 (Protein kinase N1), PKN2, PKCδ, PKCη, PKCθ, PRKG2 (Protein Kinase CGMP-Dependent 2), ROCK1, and ROCK2.

[3] = test system: somatic signs of morphine withdrawal; experiment: Somatic signs of morphine withdrawal precipitated by naloxone; format: in vivo, DBA/2J mice; design: key to Score: Rearing / Score: Teeth chatter / Score: Body shakes / Score: Wall climbing / Score: Backpedaling / Score: Hopping: score of 1 per occurrence and episode; key to Global Withdrawal Score (sum of all scores): sum of behavior scores, 1 point per occurrence/episode; details: for Global Withdrawal Score (sum of all scores) / Score: Backpedaling / Score: Body shakes / Score: Hopping / Score: Rearing / Score: Teeth chatter / Score: Wall climbing: individual mice, 20 min interval; for Global Withdrawal Score (sum of all scores): after naloxone (5 mg/kg, i.p.); for Score: Backpedaling / Score: Body shakes / Score: Hopping / Score: Rearing / Score: Teeth chatter / Score: Wall climbing: number of observations after naloxone (5 mg/kg, i.p.)
Description: In addition to hyperalgesia, withdrawal from repeated administration of morphine produces somatic signs of withdrawal and conditioned place aversion. We tested the effects of CP612 on these responses. […] Two hours after this last injection of saline or morphine, mice were administered naloxone (5 mg/kg, i.p.) to precipitate somatic signs of withdrawal and conditioned place aversion. Withdrawal from repeated administration of morphine evoked somatic signs of withdrawal (Figure 11, A–C, and Supplemental Figure 2); only the highest dose of CP612 (40 mg/kg) reduced them (Figure 11, A–C) [H PKC inhibition (3, n = 62) = 33.34, P < 0.001]. Withdrawal from repeated administration of morphine also evoked conditioned place aversion (Figure 11, A and C) [F PKC inhibition (5,78) = 7.16, P < 0.001; mice receiving repeated administration of saline with vehicle versus mice receiving repeated administration of morphine with vehicle, P < 0.001], and this was not modified by CP612 at any dose tested (all P > 0.079).
The place conditioning apparatus was an acrylic box enclosed in light- and sound-attenuating, ventilated chambers (MED Associates). The box had 2 compartments separated by a removable sliding door. […] The dimensions of each compartment were 13.5 × 27 × 17 cm. Infrared light beams and photodetectors located along the walls of the box measured general activity and location of the mouse in each compartment, which were recorded using Activity Monitor version 7.0.5.10 software (Med Associates). On day 0 (pretest), drug-naive mice were acclimated for 15 minutes to the place conditioning apparatus without the sliding door, so they had free access to both compartments of the apparatus. This established a baseline side preference, based on the amount of time spent in each compartment. […] On day 6 (conditioning day), mice were pretreated with vehicle (10 mL/kg, i.p.) or CP612 (5, 10, 20, or 40 mg/kg, i.p.), followed by a single injection of morphine (100 mg/kg, i.p.) 4 hours later. Two hours after this last injection of morphine, mice were administered naloxone (5 mg/kg, i.p.), to precipitate withdrawal, and were immediately confined to 1 side of the conditioning apparatus for 20 minutes. During this conditioning period, mice were filmed (Raspberry Pi Camera) to assess somatic signs of withdrawal ([39]). Given the limited number of cameras and the poor quality of some videos, we were only able to film a subset of mice. The following behaviors were given a score of 1 per occurrence and episode: body shakes (paw tremors and wet dog shakes), teeth chatter, rearing, hopping, wall climbing, and backpedaling. These scores were summed to obtain a global withdrawal score and were obtained from an independent observer who was blind to the experimental conditions. A subset of videos was scored by 2 observers, to ensure internal validity (Cronbach’s α = 0.980, Correlation Observer r = 0.97, slope 1.15, P < 0.005). On day 7 (test day), mice were placed in the conditioning apparatus with free access to both compartments, for 15 minutes. We recorded the time spent in each compartment.
Gregory-Flores et al. (Supplementary Table and Figures)
Figure S2. Behavioral scores of morphine withdrawal precipitated by naloxone. Male mice

[4] = target: T3, PKN1 (Protein kinase N1) (Homo sapiens, UniProt Q16512); experiment: scanMax kinome panel, PKN1; format: binding; details: 200 nM CP612; read-out: scanMax % of control, PKN1
T3 construct: purchased Eurofins-DiscoverX
Description: as §1

T2 sequence (Q13237 whole entry): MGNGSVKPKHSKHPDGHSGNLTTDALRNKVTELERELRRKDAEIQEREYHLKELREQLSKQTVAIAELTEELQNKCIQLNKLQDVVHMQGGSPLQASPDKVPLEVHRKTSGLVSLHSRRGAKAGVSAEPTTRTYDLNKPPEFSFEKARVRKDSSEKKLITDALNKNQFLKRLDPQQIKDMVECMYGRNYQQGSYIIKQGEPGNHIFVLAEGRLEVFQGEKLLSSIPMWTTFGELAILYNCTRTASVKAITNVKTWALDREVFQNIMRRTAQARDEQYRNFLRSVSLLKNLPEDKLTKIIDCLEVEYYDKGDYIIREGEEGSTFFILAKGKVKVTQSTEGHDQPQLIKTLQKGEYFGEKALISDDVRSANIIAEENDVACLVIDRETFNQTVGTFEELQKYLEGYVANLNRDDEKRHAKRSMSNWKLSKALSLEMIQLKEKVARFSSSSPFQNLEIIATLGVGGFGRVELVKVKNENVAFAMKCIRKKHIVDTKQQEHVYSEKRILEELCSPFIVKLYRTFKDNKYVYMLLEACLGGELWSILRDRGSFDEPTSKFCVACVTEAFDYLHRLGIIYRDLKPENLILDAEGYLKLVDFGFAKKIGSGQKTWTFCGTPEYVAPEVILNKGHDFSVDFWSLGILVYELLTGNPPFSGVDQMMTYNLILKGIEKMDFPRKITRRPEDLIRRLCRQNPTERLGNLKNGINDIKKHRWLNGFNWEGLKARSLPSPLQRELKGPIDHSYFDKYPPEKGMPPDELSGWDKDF
T3 sequence (Q16512 whole entry): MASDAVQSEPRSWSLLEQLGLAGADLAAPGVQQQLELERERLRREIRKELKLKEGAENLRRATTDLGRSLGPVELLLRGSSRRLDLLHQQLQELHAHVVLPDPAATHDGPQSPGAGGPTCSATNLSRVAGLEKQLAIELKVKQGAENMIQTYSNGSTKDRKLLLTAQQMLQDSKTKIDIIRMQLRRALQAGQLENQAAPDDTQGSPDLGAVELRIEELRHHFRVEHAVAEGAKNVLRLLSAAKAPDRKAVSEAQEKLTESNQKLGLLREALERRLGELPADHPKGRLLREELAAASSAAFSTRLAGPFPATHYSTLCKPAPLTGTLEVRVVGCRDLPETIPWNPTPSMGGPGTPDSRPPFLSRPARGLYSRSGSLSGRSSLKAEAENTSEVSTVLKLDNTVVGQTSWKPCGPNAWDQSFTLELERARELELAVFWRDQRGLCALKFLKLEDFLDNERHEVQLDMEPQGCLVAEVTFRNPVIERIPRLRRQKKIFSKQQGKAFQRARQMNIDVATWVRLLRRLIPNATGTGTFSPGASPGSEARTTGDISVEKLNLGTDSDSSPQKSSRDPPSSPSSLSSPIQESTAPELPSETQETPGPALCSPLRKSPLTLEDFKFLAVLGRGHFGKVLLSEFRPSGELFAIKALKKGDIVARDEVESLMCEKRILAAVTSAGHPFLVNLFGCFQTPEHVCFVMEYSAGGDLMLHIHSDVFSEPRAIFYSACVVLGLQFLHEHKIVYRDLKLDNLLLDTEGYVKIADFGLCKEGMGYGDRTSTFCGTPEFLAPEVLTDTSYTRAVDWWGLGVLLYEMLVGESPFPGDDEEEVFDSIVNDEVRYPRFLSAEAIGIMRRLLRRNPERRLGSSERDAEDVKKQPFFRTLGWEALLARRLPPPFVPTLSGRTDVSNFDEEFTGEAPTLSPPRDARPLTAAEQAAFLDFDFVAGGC

Structure (SMILES): N[C@H](CNC(=O)C1(c2ccc(Cl)cc2)CCCC1)c1ccc(C(=O)Nc2ccncc2)cc1 [CP612]
- Inhibition of conventional PKCγ [1]: weakly inhibited
- scanMax % of control, PRKG2 [2]: < 10 % of control
- Global Withdrawal Score (sum of all scores) ([3]; Morphine + CP612 10 mg/kg): 26 and 36 and 21 and 32 and 23 and 19 and 28 and 25 and 22 and 8 and 11 and 13 and 12
- Score: Backpedaling ([3]; Morphine + CP612 10 mg/kg): 0 and 2 and 1
- Score: Body shakes ([3]; Morphine + CP612 10 mg/kg): 6 and 9 and 7 and 10 and 2 and 11 and 8 and 1
- Score: Hopping ([3]; Morphine + CP612 10 mg/kg): 0 and 1
- Score: Rearing ([3]; Morphine + CP612 10 mg/kg): 16 and 15 and 9 and 10 and 7 and 13 and 12 and 2 and 3 and 8
- Score: Teeth chatter ([3]; Morphine + CP612 10 mg/kg): 3 and 4 and 2 and 0 and 1
- Score: Wall climbing ([3]; Morphine + CP612 10 mg/kg): 1 and 7 and 2 and 3 and 0 and 4 and 5
- Global Withdrawal Score (sum of all scores) ([3]; Morphine + CP612 40 mg/kg): 17 and 23 and 18 and 11 and 8 and 4 and 10 and 13 and 9
- Score: Backpedaling ([3]; Morphine + CP612 40 mg/kg): 3.5 and 0 and 1
- Score: Body shakes ([3]; Morphine + CP612 40 mg/kg): 1 and 5 and 9 and 2 and 0
- Score: Hopping ([3]; Morphine + CP612 40 mg/kg): 0.5 and 0 and 1
- Score: Rearing ([3]; Morphine + CP612 40 mg/kg): 9 and 14 and 2 and 4 and 1 and 6 and 7 and 8
- Score: Teeth chatter ([3]; Morphine + CP612 40 mg/kg): 0.5 and 3 and 5 and 2 and 1 and 0
- Score: Wall climbing ([3]; Morphine + CP612 40 mg/kg): 2 and 1 and 0 and 3
- Somatic signs of naloxone-precipitated morphine withdrawal ([3]; male DBA/2J mice, CP612 10 mg/kg i.p. (low dose)): evoked signs of withdrawal
- Effect on somatic signs of naloxone-precipitated morphine withdrawal ([3]; male DBA/2J mice, CP612 40 mg/kg i.p., 40 mg/kg): attenuated; also recorded: reduced; also recorded: decreased
- remaining binding at 0.2 µM [4]: < 10%
